These results are taken from patent US8703199B2, “Pharmaceutical compositions of adsorbates of amorphous drug” (Bend Research, Inc., priority 2001, dated 2014).

Holding throughout (format): physicochemical
Data set [1] in a line: in vitro dissolution test, microcentrifuge method, Drug 2 in PBS (alone or with Pluronic F-127). Also noted: AUC / AUC90: concentration or dose not given beside the values. The note with it: for AUC / Drug 2 Concentration: PBS pH 6.5. As to the method:
(§1) The tubes were placed in a 37° C. temperature-controlled chamber, and 1.8 mL phosphate buffered saline (PBS) at pH 6.5 and 290 mOsm/kg was added. The solutions were quickly mixed using a vortex mixer for about 60 seconds, and then centrifuged at 13,000 G at 37° C. for […]. The resulting supernatant solution was then sampled and diluted 1:5 (by volume) with methanol. Diluted samples were analyzed by high-performance liquid chromatography (HPLC) at a UV absorbance of 245 nm using a Phenomenex Kromasil C4 column and a mobile phase of 45% (0.2% H3PO4)/55% acetonitrile. After sampling, the contents of the tubes were mixed on the vortex mixer and allowed to stand undisturbed at 37° C. until the next sample was taken. Samples were collected at 4, 10, 20, 40, 90, and 1200 minutes.
This example illustrates that combining concentration-enhancing polymer with a drug/substrate adsorbate results in improved concentration enhancement. The adsorbate of Example 9, consisting of 25 wt % Drug 2 and 75 wt % CAB-O-SIL M-5P, was evaluated in an in vitro dissolution test using the procedure describe in Example 2, except that 7.2 mg of the adsorbate, or 1.8 mg of Control 2B, was added to a microcentrifuge tube containing 1.8 mL PBS alone, or 1.8 mL PBS with 3.6 mg of the concentration-enhancing polymer polyoxyethylene-polyoxypropylene block copolymer (Pluronic® F-127, available from BASF Corp.) HPLC analysis of Drug 2 was performed as described in Example 7. […]

Data set [2] can be described thus: in vitro dissolution test, microcentrifuge method, Drug 3 in 0.5 wt % MFD solution. The method, then:
The adsorbate of Example 17 was evaluated in an in vitro dissolution test as in Example 2 using 1.44 mg of the adsorbate of […], or 0.36 mg of crystalline Drug 3 (Control 3) in a microcentrifuge tube with 1.8 ml of 0.5 wt % MFD solution. Samples were analyzed by HPLC at a UV absorbance of 254 nm using a Phenomex ODS 20 column and a mobile phase consisting of 60% 0.02 M KH2PO4(pH 3.0)/40% acetonitrile.
The drug/substrate adsorbate of Example 35 was evaluated in an in vitro dissolution test using the procedure described in Example 18, except that 1.44 mg of the adsorbate, or 0.36 mg of Control 3B, was added to a microcentrifuge tube containing 1.8 mL 0.5 wt % MFD solution at pH 6.5.
The drug/concentration-enhancing polymer/substrate adsorbate of Example 37 was evaluated in an in vitro dissolution test using the procedure described in Example 18, except that 1.96 mg of the adsorbate, or 0.39 mg of Control 3A, was added to a microcentrifuge tube containing 1.8 mL 0.5 wt % MFD solution at pH 6.5.

Data set [3] in a line: in vitro dissolution test, microcentrifuge method, Drug 4 in PBS. Also noted: AUC / AUC90: concentration or dose not given beside the values. As to the method:
as §1, with “minutes. […]” for “minutes.”
The adsorbate of Example 23 was evaluated in the in vitro dissolution test described in Example 22. In this test, 45 mg of the adsorbate of Example 23 was added to the microcentrifuge tubes used in the test. Samples for this test were collected at 4, 10, 20, 40, 90, and 1200 minutes.

Data set [4] in a line: accelerated storage test of physical stability (PXRD).
Procedure: The stability of Example 1 adsorbate was evaluated in an accelerated storage test. The adsorbate was stored under elevated temperature and humidity conditions to increase the rate of physical changes occurring in the material in order to simulate a longer storage interval in a typical storage environment. Samples of the adsorbate and Control 1B were stored at 40° C./75% relative humidity (RH). Samples were analyzed using a powder X-ray diffraction (PXRD) technique using a Bruker AXS D8 Advance diffractometer as follows. The X-ray tube (KCu, 1.54184 Å) was operated at a voltage of 45 kV and a current of 40 mA with the beam focused through a Göbel mirror and a series of slits into a line focus. Diffractograms were typically collected over the 2□ range of 4° to 40° with a step size of 0.02°/step. Data were collected for a minimum time of 2.4 sec/step. Scans were obtained by holding the tube at a constant angle (to keep the illuminated area of the sample constant) and scanning a scintillation-counter detector fitted with a thin film collimator through 2□. […]
Samples of the adsorbate of Example 9 were assessed for physical stability by storing them for 12 weeks at 50° C./75% RH. […]
The physical stability of the adsorbate of Example 23 was evaluated by storing samples of the adsorbate at 40° C. and 75% relative humidity and periodically withdrawing samples and analyzing them by PXRD.
Setting [5] is: 1200 min, 0.5 wt % MFD solution.

`CCOC(=O)N1c2ccc(C(F)(F)F)cc2[C@@H](N(Cc2cc(C(F)(F)F)cc(C(F)(F)F)c2)C(=O)OC)C[C@H]1CC` [Control 2B, [2R,4S] 4-[(3,5-bis-trifluoromethyl-benzyl)-methoxycarbonyl-amino]-2-ethyl-6-trifluoromethyl-3,4-dihydro-2H-quinoline-1-carboxylic acid ethyl ester]: the AUC (as a rule, the area under the concentration-time curve, a measure of exposure) in data set [1] (0 min) is 0 µg·min/mL; in data set [1] (4 min) it was under 2 µg·min/mL; in data set [1] (10 min), under 8 µg·min/mL; in data set [1] (20 min), under 18 µg·min/mL; in data set [1] (40 min), under 38 µg·min/mL; in data set [1] (90 min) it was under 88 µg·min/mL. In addition, the AUC in data set [1] (1200 min) is <1,200 min * μg/mL. In addition, the “Drug 2 Concentration” value in data set [1] (0 min), in data set [1] (4 min), in data set [1] (10 min), in data set [1] (20 min), in data set [1] (40 min) and in data set [1] (90 min) was under 1 μgA/mL throughout. Also, the “Drug 2 Concentration” value in data set [1] (1200 min) is under 1 μgA/mL. In data set [1] (Drug 2, PBS), this molecule yielded an AUC90 of under 88 µg·min/mL. The C1200 in data set [1] (Drug 2, PBS) is reported as under 1 μgA/mL.
The molecule `O=C1Cc2cc(CCN3CCN(c4nsc5ccccc45)CC3)c(Cl)cc2N1` [Control 3A] displayed an AUC in data set [2] (0 min, 0.5 wt % MFD solution) of 0 µg·min/mL. Moreover, the “Drug 3 Concentration” value is 0 μgA/mL in data set [2] (0 min, 0.5 wt % MFD solution, 0.36 mg crystalline drug added); 5 μgA/mL in data set [2] (1200 min, 0.5 wt % MFD solution, 0.36 mg crystalline drug added); 9 μgA/mL in data set [2] (1200 min, 0.5 wt % MFD solution, 0.39 mg crystalline drug added, pH 6.5). The molecule also came in with a C1200 in data set [2] (Drug 3, 0.5 wt % MFD solution) of 9 μgA/mL. Further, the “Cmax,90” value in data set [2] (Drug 3, 0.5 wt % MFD solution) worked out at 3000 ng/mL.
On to `O=C1Cc2cc(CCN3CCN(c4nsc5ccccc45)CC3)c(Cl)cc2N1` [Control 3B], for which the exposure (AUC) turned out to be 0 µg·min/mL in data set [2] (0 min, 0.5 wt % MFD solution); 0 µg·min/mL in data set [2] (4 min, 0.5 wt % MFD solution); 0 µg·min/mL in data set [2] (10 min, 0.5 wt % MFD solution); 0 µg·min/mL in data set [2] (20 min, 0.5 wt % MFD solution); 100 µg·min/mL in data set [2] (40 min, 0.5 wt % MFD solution); 200 µg·min/mL in data set [2] (90 min, 0.5 wt % MFD solution). Besides, in data set [2] (setting [5]), the AUC is listed as 2,400 min * μg/mL. For the same molecule, the “Drug 3 Concentration” value in data set [2] (0 min, 0.5 wt % MFD solution) was found to be 0 μgA/mL; in data set [2] (4 min, 0.5 wt % MFD solution), 2 μgA/mL; in data set [2] (10 min, 0.5 wt % MFD solution), 2 μgA/mL; in data set [2] (20 min, 0.5 wt % MFD solution), 2 μgA/mL; in data set [2] (40 min, 0.5 wt % MFD solution), 2 μgA/mL; in data set [2] (90 min, 0.5 wt % MFD solution) it was 2 μgA/mL. Also, the “Drug 3 Concentration” value in data set [2] (setting [5]) was determined as 2 μgA/mL. In data set [2] (Drug 3, 0.5% MFD), this molecule registered an AUC90 of 200 µg·min/mL. In data set [2] (Drug 3, 0.5 wt % MFD solution), this molecule returned a C1200 of 2 μgA/mL.
In the case of `COc1ccc2c(c1)c(CC(=O)O)c(C)n2C(=O)c1ccc(Cl)cc1` [Control 4, Indomethacin], the AUC in data set [3] (0 min) is 0 µg·min/mL; in data set [3] (4 min), 630 µg·min/mL; in data set [3] (10 min), 2,600 min * μg/mL; in data set [3] (20 min), 7,300 min * μg/mL; in data set [3] (40 min) it was 8,100 min * μg/mL; in data set [3] (90 min), 41,700 min * μg/mL. Besides, the AUC in data set [3] (1200 min) is on record as 527,700 min * μg/mL. Besides, the “Drug 4 Concentration” value in data set [3] (0 min) came out at 0 μgA/mL; in data set [3] (4 min) it was 320 μgA/mL; in data set [3] (10 min) it was 340 μgA/mL; in data set [3] (20 min), 610 μgA/mL; in data set [3] (40 min) it was 460 μgA/mL; in data set [3] (90 min) it was 480 μgA/mL. In addition, the “Drug 4 Concentration” value in data set [3] (1200 min) turned out to be 400 μgA/mL. In addition, in data set [3] (Drug 4), the AUC90 is listed as 41,700 min * μg/mL.
In data set [4] (4 days at 40° C. and 75% relative humidity), `COc1ccc2c(c1)c(CC(=O)O)c(C)n2C(=O)c1ccc(Cl)cc1` [amorphous control, Indomethacin] returned a crystallization rate of 20 %/day. Also, in data set [4] (after 4 days of storage at 40° C. and 75% relative humidity, PXRD), the “crystallinity of the drug” value is reported as “more than 80%”.
